What was measured:
[1] = target: Prostacyclin receptor (Homo sapiens, UniProt P43119); assay: Agonist activity at human recombinant prostacyclin receptor expressed in CHO-K1 cells assessed as induction of cAMP accumulation incubated for 1 hr by HTRF assay; format: functional, cell-based
[2] = test system: Platelet; assay: Inhibition of ADP-induced platelet aggregation in human platelet rich plasma pre-incubated for 1 min before ADP addition and measured 3 mins post ADP addition by aggregometry; format: functional

Sequence of Prostacyclin receptor (P43119 whole entry): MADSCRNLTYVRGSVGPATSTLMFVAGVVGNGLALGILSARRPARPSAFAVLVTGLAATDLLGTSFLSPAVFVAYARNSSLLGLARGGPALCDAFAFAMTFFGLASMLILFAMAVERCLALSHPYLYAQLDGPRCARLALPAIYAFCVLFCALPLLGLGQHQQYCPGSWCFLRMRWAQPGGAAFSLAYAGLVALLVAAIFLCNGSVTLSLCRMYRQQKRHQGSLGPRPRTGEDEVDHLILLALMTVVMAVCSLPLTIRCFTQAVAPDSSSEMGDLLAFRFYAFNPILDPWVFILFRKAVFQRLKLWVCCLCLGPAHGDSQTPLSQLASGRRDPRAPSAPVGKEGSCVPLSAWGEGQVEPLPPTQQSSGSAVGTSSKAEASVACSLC

Row | Compound | EC50 [1] | IC50 [2]
1 | O=C(O)COC[C@H]1CC[C@H](CNC(=O)N(c2ccccc2)c2cccc(C(F)(F)F)c2)CC1 | 2.7 to 2650 nM | 10.5 to 1590 nM
2 | O=C(O)COC[C@H]1CC[C@H](COC(=O)N(c2ccccc2)c2ccc(F)cc2)CC1 | – | 10.5 to 1590 nM
3 | COc1ccc(N(C(=O)OC[C@H]2CC[C@@H](COCC(=O)O)CC2)c2ccccc2)cc1 | 2.7 to 2650 nM | 10.5 to 1590 nM
4 | O=C(O)COC[C@H]1CC[C@@H](COC(=O)N(c2ccccc2)c2ccc(F)cc2)CC1 | – | 10.5 to 1590 nM
5 | O=C(O)COC[C@H]1CC[C@H](COC(=O)N(c2cccc(F)c2)c2cnccn2)CC1 | 2.7 to 2650 nM | 10.5 to 1590 nM
6 | CCCN(C(=O)OC[C@H]1CC[C@H](COCC(=O)O)CC1)C(c1ccccc1)c1ccccc1 | 2.7 to 2650 nM | 10.5 to 1590 nM
7 | O=C(O)COC[C@H]1CC[C@H](COC(=O)N(c2cccc(F)c2)c2ccc(F)c(Cl)c2)CC1 | 2.7 to 2650 nM | 10.5 to 1590 nM
8 | COc1ccc(N(C(=O)NC[C@H]2CC[C@H](COCC(=O)O)CC2)c2ccccc2)c(C)c1 | 2.7 to 2650 nM | 10.5 to 1590 nM
9 | CN(C(=O)OC[C@H]1CC[C@H](COCC(=O)O)CC1)C(c1ccccc1)c1ccccc1 | 2.7 to 2650 nM | 10.5 to 1590 nM
10 | O=C(O)COC[C@H]1CC[C@H](COC(=O)N(c2ccccc2)c2ccc(F)c(Cl)c2)CC1 | 2.7 to 2650 nM | 10.5 to 1590 nM
11 | Cc1cccc(N(C(=O)OC[C@H]2CC[C@H](COCC(=O)O)CC2)c2cccc(F)c2)c1 | 2.7 to 2650 nM | 10.5 to 1590 nM
12 | CN(C(=O)NC[C@H]1CC[C@H](COCC(=O)O)CC1)C(c1ccccc1)c1ccccc1 | 2.7 to 2650 nM | 10.5 to 1590 nM
13 | Cc1cncc(N(C(=O)OC[C@H]2CC[C@H](COCC(=O)O)CC2)c2ccccc2)c1 | 2.7 to 2650 nM | 10.5 to 1590 nM
14 | O=C(O)COC[C@H]1CC[C@H](COC(=O)N(c2cccc(F)c2)c2cccc(Cl)c2)CC1 | 2.7 to 2650 nM | 10.5 to 1590 nM
15 | O=C(O)COC[C@H]1CC[C@H](CNC(=O)N(c2ccccc2)c2cccc(Cl)c2F)CC1 | 2.7 to 2650 nM | 10.5 to 1590 nM
16 | O=C(O)COC[C@H]1CC[C@H](COC(=O)N(c2cccc(F)c2)c2cccc(OC(F)(F)F)c2)CC1 | 2.7 to 2650 nM | 10.5 to 1590 nM
17 | O=C(O)COC[C@H]1CC[C@H](CNC(=O)N(c2ccccc2)c2ccc(Cl)c(F)c2)CC1 | 2.7 to 2650 nM | 10.5 to 1590 nM
18 | CN(C[C@H]1CC[C@H](COCC(=O)O)CC1)C(=O)N(C)C(c1ccccc1)c1ccccc1 | 2.7 to 2650 nM | 10.5 to 1590 nM
19 | Cc1ccc(N(C(=O)OC[C@H]2CC[C@H](COCC(=O)O)CC2)c2ccccc2)cc1F | 2.7 to 2650 nM | 10.5 to 1590 nM
20 | O=C(O)COC[C@H]1CC[C@H](COC(=O)N(c2cccc(F)c2)c2cccc(F)c2)CC1 | 2.7 to 2650 nM | 10.5 to 1590 nM
21 | COc1ccccc1N(C(=O)OC[C@H]1CC[C@@H](COCC(=O)O)CC1)c1ccccc1 | 2.7 to 2650 nM | 10.5 to 1590 nM
22 | COc1cccc(N(C(=O)NC[C@H]2CC[C@H](COCC(=O)O)CC2)c2ccccc2)c1 | 2.7 to 2650 nM | 10.5 to 1590 nM

Row | Compound | EC50 [1] | IC50 [2]
23 | CCOc1ccc(N(C(=O)OC[C@H]2CC[C@H](COCC(=O)O)CC2)c2cccc(F)c2)cc1 | 2.7 to 2650 nM | 10.5 to 1590 nM
24 | Cc1cccc(N(C(=O)NC[C@H]2CC[C@H](COCC(=O)O)CC2)c2ccccc2)c1 | 2.7 to 2650 nM | 10.5 to 1590 nM
25 | O=C(O)COC[C@H]1CC[C@H](COC(=O)N(c2ccc(Cl)cc2)c2cccc(F)c2)CC1 | 2.7 to 2650 nM | 10.5 to 1590 nM
26 | Cc1cccc(N(C(=O)OC[C@H]2CC[C@H](COCC(=O)O)CC2)c2ccccc2)c1 | 2.7 to 2650 nM | 10.5 to 1590 nM
27 | Cc1ccc(N(C(=O)OC[C@H]2CC[C@H](COCC(=O)O)CC2)c2cccc(F)c2)s1 | – | 10.5 to 1590 nM
28 | Cc1ccc(N(C(=O)OC[C@H]2CC[C@H](COCC(=O)O)CC2)c2ccccc2)cc1 | 2.7 to 2650 nM | 10.5 to 1590 nM
29 | O=C(O)COC[C@H]1CC[C@H](COC(=O)N(c2ccc(F)cc2)c2ccc(Cl)cc2)CC1 | 2.7 to 2650 nM | 10.5 to 1590 nM
30 | Cc1ccc(N(C(=O)NC[C@H]2CC[C@H](COCC(=O)O)CC2)c2ccccc2)cc1 | 2.7 to 2650 nM | 10.5 to 1590 nM
31 | O=C(O)COC[C@H]1CC[C@H](CNC(=O)N(c2ccccc2)c2ccc(F)c(F)c2)CC1 | 2.7 to 2650 nM | 10.5 to 1590 nM
32 | COc1ccc(N(C(=O)OC[C@H]2CC[C@H](COCC(=O)O)CC2)c2cccc(F)c2)cc1 | – | 10.5 to 1590 nM
33 | O=C(O)COC[C@H]1CC[C@H](CNC(=O)N(c2ccccc2)c2cccc(Cl)c2)CC1 | – | 10.5 to 1590 nM
34 | O=C(O)COC[C@H]1CC[C@H](COC(=O)N(c2ccccc2)c2ccc(F)nc2)CC1 | 2.7 to 2650 nM | 10.5 to 1590 nM
35 | COc1ccc(N(C(=O)OC[C@H]2CC[C@H](COCC(=O)O)CC2)c2ccccc2)cc1 | 2.7 to 2650 nM | 10.5 to 1590 nM
36 | O=C(O)COC[C@H]1CC[C@H](COC(=O)N(c2cccc(F)c2)c2cc(F)cc(F)c2)CC1 | 2.7 to 2650 nM | 10.5 to 1590 nM
37 | O=C(O)COC[C@H]1CC[C@H](COC(=O)Nc2ccccc2)CC1 | 2.7 to 2650 nM | 10.5 to 1590 nM
38 | O=C(O)COC[C@H]1CC[C@H](COC(=O)N(c2ccccc2)c2cccc(Cl)c2)CC1 | – | 10.5 to 1590 nM
39 | Cc1ccc(N(C(=O)OC[C@H]2CC[C@H](COCC(=O)O)CC2)c2cccc(F)c2)cc1F | 2.7 to 2650 nM | 10.5 to 1590 nM
40 | O=C(O)COC[C@H]1CC[C@@H](COC(=O)N(c2ccccc2)c2ccc(Cl)cc2)CC1 | – | 10.5 to 1590 nM
41 | O=C(O)COC[C@H]1CC[C@@H](COC(=O)N(c2ccccc2)c2ccccc2)CC1 | 2.7 to 2650 nM | 10.5 to 1590 nM
42 | Cc1cccc(N(C(=O)OC[C@H]2CC[C@@H](COCC(=O)O)CC2)c2ccccc2)c1 | 2.7 to 2650 nM | 10.5 to 1590 nM
43 | COc1cccc(N(C(=O)OC[C@H]2CC[C@H](COCC(=O)O)CC2)c2cccc(F)c2)c1 | 2.7 to 2650 nM | 10.5 to 1590 nM
44 | O=C(O)COC[C@H]1CC[C@H](CNC(=O)N(c2ccccc2)c2cc(F)cc(Cl)c2)CC1 | 2.7 to 2650 nM | 10.5 to 1590 nM

Row | Compound | EC50 [1] | IC50 [2]
45 | COc1cccc(N(C(=O)OC[C@H]2CC[C@H](COCC(=O)O)CC2)c2ccccc2)c1 | 2.7 to 2650 nM | 10.5 to 1590 nM
46 | CCOc1ccc(N(C(=O)OC[C@H]2CC[C@H](COCC(=O)O)CC2)c2ccc(F)cc2)cc1 | 2.7 to 2650 nM | 10.5 to 1590 nM
47 | O=C(O)COC[C@H]1CC[C@H](COC(=O)N(c2ccc(F)cc2)c2ccc(F)cc2)CC1 | 2.7 to 2650 nM | 10.5 to 1590 nM
48 | O=C(O)COC[C@H]1CC[C@H](CNC(=O)N(c2ccccc2)c2ccc(Cl)cc2)CC1 | 2.7 to 2650 nM | 10.5 to 1590 nM
49 | COc1cncc(N(C(=O)OC[C@H]2CC[C@H](COCC(=O)O)CC2)c2ccccc2)c1 | 2.7 to 2650 nM | 10.5 to 1590 nM
50 | O=C(O)COC[C@H]1CC[C@H](CNC(=O)N(c2ccccc2)c2cc(F)cc(F)c2)CC1 | 2.7 to 2650 nM | 10.5 to 1590 nM
51 | O=C(O)COC[C@H]1CC[C@H](COC(=O)N(c2cccc(F)c2)c2ccc(F)c(F)c2)CC1 | 2.7 to 2650 nM | 10.5 to 1590 nM
52 | O=C(O)COC[C@H]1CC[C@H](COC(=O)N(c2ccccc2)c2cnccn2)CC1 | 2.7 to 2650 nM | 10.5 to 1590 nM
53 | COc1cccc(N(C(=O)NC[C@H]2CC[C@H](COCC(=O)O)CC2)c2ccccc2)c1F | 2.7 to 2650 nM | 10.5 to 1590 nM
54 | O=C(O)COC[C@H]1CC[C@H](COC(=O)N(c2ccccc2)c2ccc(F)cn2)CC1 | 2.7 to 2650 nM | 10.5 to 1590 nM
55 | O=C(O)COC[C@H]1CC[C@H](COC(=O)N(c2ccccc2)c2ccc(F)c(F)c2)CC1 | 2.7 to 2650 nM | 10.5 to 1590 nM
56 | Cc1ccc(N(C(=O)NC[C@H]2CC[C@H](COCC(=O)O)CC2)c2ccc(C)cc2)cc1 | 2.7 to 2650 nM | 10.5 to 1590 nM
57 | O=C(O)COC[C@H]1CC[C@@H](CNC(=O)N(c2ccccc2)c2ccccc2)CC1 | – | 10.5 to 1590 nM
58 | O=C(O)COC[C@H]1CC[C@H](COC(=O)N(c2ccccc2)c2ccccn2)CC1 | 2.7 to 2650 nM | 10.5 to 1590 nM
59 | O=C(O)COC[C@H]1CC[C@H](COC(=O)N(c2ccccc2)c2cccnc2)CC1 | 2.7 to 2650 nM | 10.5 to 1590 nM
60 | Cc1ccc(N(C(=O)OC[C@H]2CC[C@H](COCC(=O)O)CC2)c2ccc(F)cc2)s1 | 2.7 to 2650 nM | 10.5 to 1590 nM
61 | Cc1cc(C)cc(N(C(=O)OC[C@H]2CC[C@H](COCC(=O)O)CC2)c2cccc(F)c2)c1 | 2.7 to 2650 nM | 10.5 to 1590 nM
62 | O=C(O)COC[C@H]1CC[C@H](CNC(=O)N(c2ccccc2)c2cccc(F)c2F)CC1 | 2.7 to 2650 nM | 10.5 to 1590 nM
63 | O=C(O)COC[C@H]1CC[C@@H](COC(=O)N(c2ccccc2)c2cccc(F)c2)CC1 | – | 10.5 to 1590 nM
64 | O=C(O)CNC(=O)COC[C@H]1CC[C@H](COC(=O)N(c2ccccc2)c2ccc(Cl)cc2)CC1 | – | 10.5 to 1590 nM
